{"source": "patent US7960590B2", "about": "“Method for producing ethyleneamines from untreated AAN” (BASF SE, priority 2007, dated 2011)", "experiment": "Solubility of IDAN in THF and in AAN", "data": [{"compound": "N#CCNCC#N", "note": "[IDAN, iminodiacetonitrile]", "values": [{"measurement": "dissolved concentration", "setting": "in AAN at 40° C.", "value": "~52", "unit": "%"}, {"measurement": "dissolved concentration", "setting": "in AAN, room temperature, up to", "value": "~35", "unit": "%"}, {"measurement": "solubility", "setting": "in THF at room temperature", "value": "~10", "unit": "%"}]}]}
